Experimental findings from patent US7056924B2, “Substituted heterocyclic compounds” (CV Therapeutics, Inc., priority 2002, dated 2006) are described below.

One may read the IC50 as the concentration that inhibits the measured activity by half.

In one test the test system is Palmitoyl CoA oxidation in rat heart mitochondria. The test can be described thus: Mitochondrial assay: Palmitoyl CoA oxidation. It counts as biochemical. The following applies: 16 microM 1-C14 palmitoyl CoA, 15 min at 30° C., read-out: Effect of Compounds of the Invention on Palmitoyl CoA Oxidation (IC50). As for the experimental part: Rat heart mitochondria were isolated by the method of Nedergard and Cannon (Methods in Enzymol. 55, 3, 1979).
Palmitoyl CoA oxidation—The Palmitoyl CoA oxidation was carried out in a total volume of 100 micro liters containing the following agents: 110 mM KCl, 33 mM Tris buffer at pH 8, 2 mM KPi, 2 mM MgCl2, 0.1 mM EDTA, 14.7 microM defatted BSA, 0.5 mM malic acid, 13 mM carnitine, 1 mM ADP, 52 micrograms of mitochondrial protein, and 16 microM 1-C14 palmitoyl CoA (Sp. Activity 60 mCi/mmole; 20 microCi/ml, using 5 microliters per assay). The compounds of this invention were added in a DMSO solution at the following concentrations: 100 micro molar, 30 micro molar, and 3 micro molar. In each assay, a DMSO control was used. After 15 min at 30° C., the enzymatic reaction was centrifuged (20,000 g for 1 min), and 70 microliters of the supernatant was added to an activated reverse phase silicic acid column (approximately 0.5 ml of silicic acid). The column was eluted with 2 ml of water, and 0.5 ml of the eluent was used for scintillation counting to determine the amount of C^14 trapped as C^14 bicarbonate ion.
As for “(2R)-3-{(3S)-3-methyl-4-[(5-(3,4-dichlorophenyl)isoxazol-3-yl)methyl]piperazinyl}-1-(2-methylbenzothiazol-5-yloxy)propan-2-ol”, the half-maximal inhibitory concentration (IC50) turned out to be 250 nM.

For the substance “(2R)-1-(4-{[5-(2-chlorophenyl)(1,3,4-oxadiazol-2-yl)]methyl}piperazinyl)-3-(2-methylbenzothiazol-5-yloxy)propan-2-ol”, the IC50 came to 2100 nM.

Consider “(2R)-3-[(2S)-2-methyl-4-({5-[4-(trifluoromethyl)phenyl](1,2,4-oxadiazol-3-yl)}methyl)piperazinyl]-1-(2-methylbenzothiazol-5-yloxy)propan-2-ol”, for which the IC50 was 250 nM.

Regarding “(2R)-3-{(2S)-2-methyl-4-[(3-(2-thienyl)(1,2,4-oxadiazol-5-yl))methyl]piperazinyl}-1-(2-methylbenzothiazol-5-yloxy)propan-2-ol”, the IC50 is 490 nM.

Consider “3-{(2R)-2-methyl-4-[(5-phenylisoxazol-3-yl)methyl]piperazinyl}(2S)-1-(2-methylbenzothiazol-5-yloxy)propan-2-ol”, for which the IC50 is 440 nM.

As for “(2R)-3-(2-methylbenzothiazol-5-yloxy)-1-[4-({5-[4-(trifluoromethyl)phenyl](1,3,4-oxadiazol-2-yl)}methyl)piperazinyl]propan-2-ol”, the IC50 stood at 4800 nM.

Regarding “(2R)-1-((2S)-2-methyl-4-{[5-(4-methylphenyl)(1,3,4-oxadiazol-2-yl)]methyl}piperazinyl)-3-(2-methylbenzothiazol-5-yloxy)propan-2-ol”, the IC50 was 540 nM.

“(2R)-1-((3S)-4-{[2-(4-chlorophenyl)(1,3-thiazol-4-yl)]methyl}-3-methylpiperazinyl)-3-(2-methylbenzothiazol-5-yloxy)propan-2-ol”: the IC50 stood at 410 nM.

Take “(2R)-1-{(3S)-3-methyl-4-[(2-phenyl(1,3-thiazol-4-yl))methyl]piperazinyl}-3-(2-methylbenzothiazol-5-yloxy)propan-2-ol”: the IC50 is 340 nM.

The same test, now with this note: at 30 uM.
Turning to “(2R)-3-(2-methylbenzothiazol-5-yloxy)-1-[4-({5-[3-(trifluoromethyl)phenyl](1,2,4-oxadiazol-3-yl)}methyl)piperazinyl]propan-2-ol”, the “Effect on Palmitoyl CoA Oxidation, % at 30 uM” value was found to be 58% at 30 uM.
